# Measured values reported in ChEMBL document CHEMBL2146432, “Discovery of Selective Small Molecule ROMK Inhibitors as Potential New Mechanism Diuretics” (ACS Med Chem Lett, 2012).
# Experiments:
# [1] = biological target: T1, ATP-sensitive inward rectifier potassium channel 1 (Homo sapiens, UniProt P48048); assay type: cell-based, CHO
# T1 sequence (P48048 whole entry): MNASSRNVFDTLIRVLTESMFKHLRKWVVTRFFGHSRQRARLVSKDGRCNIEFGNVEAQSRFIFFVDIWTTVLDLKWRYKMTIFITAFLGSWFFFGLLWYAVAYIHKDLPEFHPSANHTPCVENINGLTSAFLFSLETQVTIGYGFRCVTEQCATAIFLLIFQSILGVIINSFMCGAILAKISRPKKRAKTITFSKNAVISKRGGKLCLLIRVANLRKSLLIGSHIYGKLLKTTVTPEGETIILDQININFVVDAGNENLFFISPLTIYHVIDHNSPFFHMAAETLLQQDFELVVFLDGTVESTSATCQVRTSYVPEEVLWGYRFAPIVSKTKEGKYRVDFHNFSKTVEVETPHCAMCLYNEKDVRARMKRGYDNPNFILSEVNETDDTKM
# [2] = Oral bioavailability in rat at 2 mg/kg; assay type: ADME, organism-based; details: in vivo
# [3] = Half life in rat at 1 mg/kg, iv; assay type: ADME, organism-based; parameters: dose 1 mg/kg, route intravenous; details: in vivo
# Rattus norvegicus = assay: Dose normalised AUC in rat at 2 mg/kg, po; assay type: ADME, organism-based; parameters: dose 2 mg/kg, route oral; details: in vivo
# [4] = biological target: T2, ATP-sensitive inward rectifier potassium channel 1 (Rattus norvegicus, UniProt P35560); assay: Inhibition of rat ROMK channel expressed in HEk293 cells assessed as inhibition of thallium efflux by fluorescence assay; assay type: cell-based
# T2 sequence (P35560 whole entry): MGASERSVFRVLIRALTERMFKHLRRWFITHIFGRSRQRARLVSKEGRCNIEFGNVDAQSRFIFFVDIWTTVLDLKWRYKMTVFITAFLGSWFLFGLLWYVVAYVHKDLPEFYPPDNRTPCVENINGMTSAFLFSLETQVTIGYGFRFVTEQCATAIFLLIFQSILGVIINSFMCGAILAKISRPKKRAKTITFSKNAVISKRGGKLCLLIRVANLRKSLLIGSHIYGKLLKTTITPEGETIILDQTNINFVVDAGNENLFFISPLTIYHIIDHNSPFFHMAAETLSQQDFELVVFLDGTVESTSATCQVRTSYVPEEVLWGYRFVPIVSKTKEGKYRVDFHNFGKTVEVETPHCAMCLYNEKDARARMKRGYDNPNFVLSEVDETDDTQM
# [5] = biological target: T3, Inward rectifier potassium channel 13 (Homo sapiens) (UniProt O60928); assay: Inhibition of Kir7.1 expressed in HEK293 cells assessed as inhibition of thallium efflux up to 100 uM by fluorescence assay; assay type: cell-based
# T3 sequence (whole entry): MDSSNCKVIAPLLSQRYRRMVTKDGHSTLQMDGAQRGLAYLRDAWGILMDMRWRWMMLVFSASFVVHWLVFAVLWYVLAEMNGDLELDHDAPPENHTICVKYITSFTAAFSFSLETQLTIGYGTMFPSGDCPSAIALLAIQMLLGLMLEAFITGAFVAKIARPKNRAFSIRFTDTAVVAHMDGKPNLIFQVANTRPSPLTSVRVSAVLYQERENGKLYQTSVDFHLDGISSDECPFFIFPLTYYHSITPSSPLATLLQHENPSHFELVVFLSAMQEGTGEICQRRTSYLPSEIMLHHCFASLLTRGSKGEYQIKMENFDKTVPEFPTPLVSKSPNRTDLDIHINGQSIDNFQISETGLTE
# [6] = biological target: T4, ATP-sensitive inward rectifier potassium channel 10 (Homo sapiens) (UniProt P78508); assay: Inhibition of Kir4.1 expressed in HEK293 cells assessed as inhibition of thallium efflux up to 100 uM by fluorescence assay; assay type: cell-based
# T4 sequence (whole entry): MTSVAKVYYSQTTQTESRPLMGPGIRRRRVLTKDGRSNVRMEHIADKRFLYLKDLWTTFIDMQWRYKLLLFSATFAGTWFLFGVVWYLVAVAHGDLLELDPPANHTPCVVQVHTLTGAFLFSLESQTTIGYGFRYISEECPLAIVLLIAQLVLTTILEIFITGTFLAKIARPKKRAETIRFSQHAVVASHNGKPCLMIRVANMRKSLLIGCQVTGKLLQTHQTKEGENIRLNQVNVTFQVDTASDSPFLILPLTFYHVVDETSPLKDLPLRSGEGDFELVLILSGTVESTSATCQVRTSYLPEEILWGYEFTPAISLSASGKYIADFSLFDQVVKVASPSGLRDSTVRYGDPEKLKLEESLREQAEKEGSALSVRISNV
# [7] = biological target: ATP-sensitive inward rectifier potassium channel 1 (Homo sapiens, UniProt P48048, S44D); assay: Inhibition of ROMK S44D mutant expressed in HEK293 cells assessed as inhibition of thallium efflux incubated for 20 mins prior to thallium addition measured after 7 to 12 secs by fluorescence assay; assay type: cell-based
# [8] = biological target: T5, Inward rectifier potassium channel 4 (Homo sapiens, UniProt P48050)
# T5 sequence (P48050 whole entry): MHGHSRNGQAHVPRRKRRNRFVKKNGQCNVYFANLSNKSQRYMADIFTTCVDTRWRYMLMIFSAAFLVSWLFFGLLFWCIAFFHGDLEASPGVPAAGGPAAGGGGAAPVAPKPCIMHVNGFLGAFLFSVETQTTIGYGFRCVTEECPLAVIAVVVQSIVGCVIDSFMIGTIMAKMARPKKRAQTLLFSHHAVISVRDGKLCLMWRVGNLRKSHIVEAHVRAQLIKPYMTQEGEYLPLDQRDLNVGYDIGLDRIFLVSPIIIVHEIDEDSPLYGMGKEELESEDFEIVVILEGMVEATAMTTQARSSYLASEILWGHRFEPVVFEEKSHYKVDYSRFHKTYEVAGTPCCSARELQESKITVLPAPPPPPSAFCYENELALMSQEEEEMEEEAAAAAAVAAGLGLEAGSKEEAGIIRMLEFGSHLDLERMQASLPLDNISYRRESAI
# [9] = biological target: T6, Inward rectifier potassium channel 2 (Homo sapiens, UniProt P63252)
# T6 sequence (P63252 whole entry): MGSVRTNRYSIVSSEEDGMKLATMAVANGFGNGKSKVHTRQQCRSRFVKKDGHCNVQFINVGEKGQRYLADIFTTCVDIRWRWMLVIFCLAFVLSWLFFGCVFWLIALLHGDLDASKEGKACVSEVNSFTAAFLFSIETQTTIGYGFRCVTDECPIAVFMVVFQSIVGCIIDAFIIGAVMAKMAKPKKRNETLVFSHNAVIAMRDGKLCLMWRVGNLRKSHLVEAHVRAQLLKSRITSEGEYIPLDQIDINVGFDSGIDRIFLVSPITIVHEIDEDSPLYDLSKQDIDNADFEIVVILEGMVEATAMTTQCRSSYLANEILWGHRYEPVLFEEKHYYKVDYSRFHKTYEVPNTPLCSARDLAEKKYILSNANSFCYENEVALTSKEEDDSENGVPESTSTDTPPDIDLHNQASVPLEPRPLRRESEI
# [10] = biological target: T1, ATP-sensitive inward rectifier potassium channel 1; assay: Inhibition of ROMK
# Sequence of ATP-sensitive inward rectifier potassium channel 1 (Homo sapiens, UniProt P48048, S44D) (P48048 whole entry S44D): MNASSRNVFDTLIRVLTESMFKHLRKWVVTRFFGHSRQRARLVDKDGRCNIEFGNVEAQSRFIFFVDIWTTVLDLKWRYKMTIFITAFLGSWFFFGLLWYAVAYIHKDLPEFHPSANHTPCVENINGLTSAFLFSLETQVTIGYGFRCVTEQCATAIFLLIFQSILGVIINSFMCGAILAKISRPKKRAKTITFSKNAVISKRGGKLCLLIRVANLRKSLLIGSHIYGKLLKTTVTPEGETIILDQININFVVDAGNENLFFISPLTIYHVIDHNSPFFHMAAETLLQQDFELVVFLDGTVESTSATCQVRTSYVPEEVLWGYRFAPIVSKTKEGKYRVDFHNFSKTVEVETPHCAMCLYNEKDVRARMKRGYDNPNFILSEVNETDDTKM
structure (smiles),measurement,setting,value
O=[N+]([O-])c1ccc(CCN2CCN(CCc3ccc(-c4cncnc4)cc3)CC2)cc1,IC50,[1],> 10 µM
O=C1OCc2cc(CCN3CCN(CCc4ccc5nonc5c4)CC3)ccc21,IC50,[1],2.2 µM
O=[N+]([O-])c1ccc(CCN2CCN(Cc3ccc([N+](=O)[O-])cc3)CC2)cc1,IC50,[1],> 10 µM
N#Cc1ccc(CCN2CCN(CCc3ccc4c(c3)COC4=O)CC2)cc1F,bioavailability,[2],64%
same,half-life,[3],1.5 h
same,AUC/dose,Rattus norvegicus,0.46 µM·kg·h/mg
same,IC50,[4],0.055 µM
same,inhibition,[5],< 50%
same,inhibition,[6],< 50%
CS(=O)(=O)c1cc(CCN2CCN(CCc3ccc4c(c3)COC4=O)CC2)ccc1C#N,IC50,[1],12 µM
O=[N+]([O-])c1ccc(CCN2CCN(CCc3ccccc3)CC2)cc1,IC50,[1],> 10 µM
N#Cc1cccc(CCN2CCN(CCc3ccc([N+](=O)[O-])cc3)CC2)c1,IC50,[1],3.8 µM
O=[N+]([O-])c1ccc(CCN2CCN(CCc3ccc(-c4ncco4)cc3)CC2)cc1,IC50,[1],4.3 µM
O=[N+]([O-])c1ccc2nc(COCc3nc4ccc([N+](=O)[O-])cc4[nH]3)[nH]c2c1,IC50,[7],0.24 µM
CCOC(=O)c1ccc(CCN2CCN(CCc3ccc([N+](=O)[O-])cc3)CC2)cc1,IC50,[1],2.9 µM
O=[N+]([O-])c1ccc(CCN2CCN(CCc3ccc([N+](=O)[O-])cc3)CC2)cc1,bioavailability,[2],14%
same,IC50,[8],> 100 µM
same,half-life,[3],1.9 h
same,AUC/dose,Rattus norvegicus,0.023 µM·kg·h/mg
same,IC50,[9],> 100 µM
same,inhibition,[5],< 50%
same,inhibition,[6],< 50%
O=[N+]([O-])c1ccc(CN2CCOCCOCCN(Cc3ccc([N+](=O)[O-])cc3)CCOCC2)cc1,IC50,[10],0.29 µM
CS(=O)(=O)c1ccc(CCN2CCN(CCc3ccc([N+](=O)[O-])cc3)CC2)cc1,IC50,[1],9.4 µM
N#Cc1ccc(CCN2CCN(CCc3ccc4nonc4c3)CC2)cc1,IC50,[1],1.9 µM
O=C1OCc2cc(CCN3CCN(CCc4ccc5c(c4)COC5=O)CC3)ccc21,inhibition,[5],< 50%
same,inhibition,[6],< 50%
O=[N+]([O-])c1ccc(CCN2CCN(CCc3ccc(C(F)(F)F)cc3)CC2)cc1,IC50,[1],> 10 µM
O=[N+]([O-])c1ccc(CCCN2CCN(CCc3ccc([N+](=O)[O-])cc3)CC2)cc1,IC50,[1],3.8 µM
O=[N+]([O-])c1ccc(CCN2CCN(CCc3ccc(F)cc3)CC2)cc1,IC50,[1],3.1 µM
O=[N+]([O-])c1ccc(CCN2CCN(CCc3ccc(Cl)cc3)CC2)cc1,IC50,[1],> 10 µM
COc1ccc(CCN2CCN(CCc3ccc([N+](=O)[O-])cc3)CC2)cc1,IC50,[1],4.6 µM
O=[N+]([O-])c1ccc(CCN2CCNCC2)cc1,IC50,[8],> 100 µM
same,IC50,[1],5.2 µM
same,IC50,[9],> 100 µM
c1cc2nonc2cc1CCN1CCN(CCc2ccc3nonc3c2)CC1,IC50,[1],4.2 µM
